Measured values published in patent US10245328B2, “Gadolinium complex comprising DO3A-tranexamic acid conjugate” (KYUNGPOOK NATIONAL UNIVERSITY INDUSTRY-ACADEMIC COOPERATION …, priority 2014, dated 2019).

Columns and labels:
[1] = Isothermal titration calorimeter (ITC), binding of Gd^3+ to ligand; conditions: 25° C., pH = 4.5, read-out: Kd (dissociation constant)
Procedure: In order to quantify binding isotherms of paramagnetic metal ions Gd^3+ with a ligand solution, an ITC test is executed at a VP-ITC isothermal titration microcalorimeter (Microcal, USA). Data collection, analysis and plotting are executed with help of software package Origin, version 8.0 from Microcal. A sample cell has a 1.43 mL volume. The cell is filled with a water-soluble buffer solution of the above compound 1a-e ligand (0.2 mM). A water-soluble buffer solution of Gd^3+ (1.0 mM) is input into a 300 μL continuous agitated (300 rpm) syringe and 10 μL aliquots thereof is injected into the cell. At a 3-mins interval, the cell is delivered over 20 s. Data points are collected on a 2 s basis. The measurement is executed at 25° C. All titrations are executed three times to secure data consistency and solution stability. These titration isotherms are integrated to find out an enthalpy change at each injection. In order to fit well with two mathematically different sets of site models, the titration isotherms are analyzed. Via a calorie measurement, parameters including a binding constant (Ka), a change in enthalpy (ΔH), a stoichiometry of binding (N) are calculated. Next, a free energy (ΔG) and an entropy change (ΔS) are calculated using a following complexation equation: Mn++nL↔MLn:ΔG=−RT·InKa=ΔH-TΔS,
where, R indicates a universal gas constant; T is Kelvin temperature.

[2] = Stability against hydrolysis in H2O (HPLC, 197 nm); type: physicochemical; conditions: 2e in water
Procedure: The contrast agents of the present series 100 mg are dissolved in distilled water 10 mL and is maintained as they are for 72 hours at 50° C. Using HPLC, O.D. (Optical Density) values are read at 197 nm and the stability of the agents is determined. The substances at each retention time are examined using LC Mass Spectroscopy for accurate identification of decomposed products.

[3] = Relaxation rate measurement (R1, R2) in PBS and in PBS solution of HSA; type: physicochemical; conditions: 293K; for R1 / R2: PBS pH 7.4, 64 MHz (1.5 T); for R1 in 0.67 mM HSA / R2 in 0.67 mM HSA: PBS solution of 0.67 mM HSA, 64 MHz
Procedure: T1 measurement is carried out using an inversion recovery method at 1.5 T (64 MHz) in a variable inverse time (TI). MR images are obtained for 35 different TI values in a range of 50 to 1750 ms. A T1 relaxation time is obtained from a nonlinear least-squares fit of a signal strength measured at each TI value. For a T2 CPMG (Carr-Purcell-Meiboon-Gill) pulse sequence measurement, the measurement is adapted to a multi spin-echo measurement. 34 images are obtained at 34 different echo time (TE) values in a range of 10 to 1900 ms. The T2 relaxation time is obtained from a nonlinear least-squares fit of mean pixel values for multi spin-echo measurement at each echo time. Next, a relaxation rate (R1 and R2) is calculated as an inverse of a relaxation time per mM. The determined relaxation time (T1 and T2) and relaxation rate (R1 and R2) are subjected to an image processing to get a relaxation time map and relaxation rate respectively.
For comparison between the complexes 2a-e, there is no noticeable difference in R1's. The measurement is carried out for two different media, that is, PBS (pH=7.4) and PBS solution of HAS in order to indicate which blood-pool effect is expressed by the complexes 2a-e.

Q: For `NC1CCC(NC(=O)CN2CCN(CC(=O)O)CCN(CC(=O)O)CCN(CC(=O)O)CC2)CC1` (stereo not shown) [1d], which Kd [1] is on record?
A: 29.3 µM

Q: Which “HPLC peak 2.32 min” value ([2]; 50° C./3 day) does the source give for `O=C([O-])CN1CCN(CC(=O)[O-])CCN(CC(=O)NCC2CCCCC2)CCN(CC(=O)[O-])CC1.[Gd+3]` [2e] here?
A: 0.04%

Q: And the “HPLC peak 4.98 min” value ([2]; 50° C./3 day)?
A: 0.07%

Q: What about the “HPLC peak 17.21 min, 2e” value ([2]; 50° C./3 day) of the same compound?
A: 94.66%

Q: And the “HPLC peak 23.70 min, 2e isomer” value ([2]; 50° C./3 day)?
A: 1.57%

Q: And the “HPLC peak 40.63 min” value ([2]; 50° C./3 day)?
A: 0.05%

Q: And the “HPLC peak 42.14 min” value ([2]; 50° C./3 day)?
A: 0.05%

Q: What about the “HPLC peak 43.00 min” value ([2]; 50° C./3 day) of the same compound?
A: 0.05%

Q: What about the “HPLC peak 44.95 min” value ([2]; 50° C./3 day) of the same compound?
A: 0.05%

Q: And the “HPLC peak 45.93 min” value ([2]; 50° C./3 day)?
A: 0.03%

Q: And the “HPLC peak 46.64 min” value ([2]; 50° C./3 day)?
A: 0.01%

Q: And the “HPLC peak 48.46 min” value ([2]; 50° C./3 day)?
A: 0.03%

Q: And the “HPLC peak 49.36 min” value ([2]; 50° C./3 day)?
A: 0.18%

Q: What about the “HPLC peak 2.32 min” value ([2]; initial) of the same compound?
A: 0.04%

Q: What about the “HPLC peak 4.98 min” value ([2]; initial) of the same compound?
A: 0.09%

Q: And the “HPLC peak 17.21 min, 2e” value ([2]; initial)?
A: 94.88%

Q: And the “HPLC peak 23.70 min, 2e isomer” value ([2]; initial)?
A: 1.36%

Q: What about the “HPLC peak 40.63 min” value ([2]; initial) of the same compound?
A: 0.03%

Q: What about the “HPLC peak 42.14 min” value ([2]; initial) of the same compound?
A: 0.01%

Q: What about the “HPLC peak 43.00 min” value ([2]; initial) of the same compound?
A: 0.05%

Q: What about the “HPLC peak 44.95 min” value ([2]; initial) of the same compound?
A: 0.05%

Q: What about the “HPLC peak 45.93 min” value ([2]; initial) of the same compound?
A: 0.04%

Q: And the “HPLC peak 46.64 min” value ([2]; initial)?
A: 0.02%

Q: And the “HPLC peak 48.46 min” value ([2]; initial)?
A: 0.03%

Q: And the “HPLC peak 49.36 min” value ([2]; initial)?
A: 0.18%

Q: What about the R1 [3] of the same compound?
A: 4.49 ± 0.18 mM⁻¹ s⁻¹

Q: What about the R2 [3] of the same compound?
A: 4.52 ± 0.28 mM⁻¹ s⁻¹

Q: And the “R1 in 0.67 mM HSA” value [3]?
A: 5.21 ± 0.23 mM⁻¹ s⁻¹

Q: And the “R2 in 0.67 mM HSA” value [3]?
A: 6.22 ± 0.28 mM⁻¹ s⁻¹

Q: Which results are given for `O=C([O-])CN1CCN(CC(=O)[O-])CCN([C@H](CO)[C@H](O)CO)CCN(CC(=O)[O-])CC1.[Gd+3]` (racemic) [Gadovist, Gd-BT-DO3A, reference compound]?
A: R1 [3]: 4.38 ± 0.15 mM⁻¹ s⁻¹; R2 [3]: 4.27 ± 0.30 mM⁻¹ s⁻¹; R1 in 0.67 mM HSA [3]: 4.81 ± 0.17 mM⁻¹ s⁻¹; R2 in 0.67 mM HSA [3]: 5.54 ± 0.24 mM⁻¹ s⁻¹

Q: Which Kd [1] does the source give for `O=C(O)CN1CCN(CC(=O)O)CCN(CC(=O)NCC2CCC(C(=O)O)CC2)CCN(CC(=O)O)CC1` (stereo not shown) [1b] here?
A: 3.98 µM
